Laboratory results from patent US20180169145A1, “COMPOSITIONS AND METHODS FOR USING LAMELLAR BODIES FOR THERAPEUTIC PURPOSES” (priority 2015, published 2018).
Read-outs that look alike come from different tables or passages of the source.

Columns and labels:
Pseudomonas aeruginosa [1] = assay: MBEC assay: sessile (biofilm) MIC of antibiotics in absence and presence of LMS-611; type: cell-based; conditions: for sessile MIC + LMS: in presence of LMS-611 (10 mg/mL); for reduction of sessile MIC of the antibiotic by LMS-611: PA strains, in combination with LMS-611; for MIC: Pseudomonas aeruginosa; for MIC / sessile MIC: antibiotic alone; for effect of LMS-611 with antibiotic in reducing biofilm MICs, compared with antibiotic alone: strain PA01, FIG. 14-17
Protocol: Pseudomonas aeruginosa strains PA01, PAl4, two clinical Cystic Fibrosis (CF) strains […], YH1 and Burkholderia cenocepacia strains […]7 and YHBCC8 were grown on a Nunc Immunosorp PEG plate model for 48 h on a rocking platform. […] Scanning electron microscopy was used to assess the treated biofilms.

Pseudomonas aeruginosa [2] = assay: Artificial sputum medium (ASM) biofilm assay; type: cell-based; conditions: for bacterial kill of antibiotic with LMS-611: LMS-611 at 40 μg/ml
Source text: ASM is artificial sputum medium.
Images of PA biofilm in ASM. Quantification of bacterial count from the ASM biofilm (CFU/mL).
In vitro, Artificial Sputum Models (ASM), considered to represent biofilm typical of that seen in CF, were used to study Pseudomonas aeruginosa infection.
Pyocyanin, a blue-green phenazine pigment produced by P. aeruginosa and controlled by the quorum sensing system (a system of inter-bacterial signalling which correlates to population density) and thus its presence and concentration in a bacterial culture can be used to give an indication of the strength of quorum sensing activity.
Measurement of metabolic activity of Pseudomonas aeruginosa in the Artificial Sputum Model (ASM) using a Resazurin assay, in which the fluorescence detected is directly proportional to the metabolic activity of the bacteria (FIG. 3).

Burkholderia cenocepacia = assay: MBEC assay: sessile (biofilm) MIC of antibiotics in absence and presence of LMS-611; type: cell-based; conditions: for MIC: Burkholderia cenocepacia
Protocol: Pseudomonas aeruginosa strains PA01, PAl4, two clinical Cystic Fibrosis (CF) strains H183, YH1 and Burkholderia cenocepacia strains K56-2, YHBCC5, YHBCC6, YHBCC7 and YHBCC8 were grown on a Nunc Immunosorp PEG plate model for 48 h on a rocking platform. […] Scanning electron microscopy was used to assess the treated biofilms.

PA strains = assay: Nebulisation of LMS-611 combined with antibiotic, multistage liquid impactor (MSLI); set-up: species or system Pseudomonas aeruginosa; conditions: colistin: PA2783 strain, stages representing site of cystic fibrosis lung disease; tobramycin: PA strain 27853
Source text: FIG. 18 illustrates the effect of nebulisation of LMS-611 when combined with Colistin with PA strain 217M using nebulisers with two different modes of operation (Pari-boy (jet-type) and Pari Flow (oscillating mesh)) wherein a multistage liquid impactor (MSLI) was used to measure the aerodynamic particle size distribution and deposition from nebulised LMS-611 compositions wherein the MSLI from Copley measures particle size in accordance with the European Pharmacopeia guidelines (Chapter […]) and the impactor has five stages simulating the various parts of the human respiratory system. Particles with the same inertia will impact upon a particular stage, whilst smaller particles will pass onto the next impaction stage such that by analysing the amount of LMS-611 deposited on the various stages the fine particle dose and fraction can be calculated wherein the fine particle dose (respirable fraction) is the proportion of the dose from an inhalation device (nebuliser) that is made available to the airways, and this correlates with the dose of LMS-611 that reaches the conducting airways during inhalation;

C[C@H]1[C@H](NC(=O)/C(=N\OC(C)(C)C(=O)O)c2csc(N)n2)C(=O)N1S(=O)(=O)O [Aztreonam]
sessile MIC + LMS (Pseudomonas aeruginosa [1]; PA strain H183): 2000 µg/mL
sessile MIC + LMS (Pseudomonas aeruginosa [1]; PA strain PA01): 2000 µg/mL
sessile MIC + LMS (Pseudomonas aeruginosa [1]; PA strain PA14): 2000 µg/mL
sessile MIC + LMS (Pseudomonas aeruginosa [1]; PA strain YH1): 1000 µg/mL
reduction of sessile MIC of the antibiotic by LMS-611 (Pseudomonas aeruginosa [1]): 2-4 fold
MIC (Pseudomonas aeruginosa [1]; PA14, PA strain PA14): 4000 µg/mL
MIC (Pseudomonas aeruginosa [1]; PA strain H183): 4000 µg/mL
MIC (Pseudomonas aeruginosa [1]; PA strain PA01): 4000 µg/mL
MIC (Pseudomonas aeruginosa [1]; PA strain YH1): 4000 µg/mL

O=C(O)c1cn(C2CC2)c2cc(N3CCNCC3)c(F)cc2c1=O [Ciprofloxacin]
bacterial kill of antibiotic with LMS-611 (Pseudomonas aeruginosa [2]): total bacterial kill

C[C@@H](O)[C@H]1C(=O)N2C(C(=O)O)=C(S[C@@H]3CN[C@H](C(=O)N(C)C)C3)[C@H](C)[C@H]12 [Meropenem]
sessile MIC + LMS (Pseudomonas aeruginosa [1]; PA strain H183): 1000 µg/mL
sessile MIC + LMS (Pseudomonas aeruginosa [1]; PA strain PA01): 2000 µg/mL
sessile MIC + LMS (Pseudomonas aeruginosa [1]; PA strain PA14): 2000 µg/mL
sessile MIC + LMS (Pseudomonas aeruginosa [1]; PA strain YH1): 1000 µg/mL
reduction of sessile MIC of the antibiotic by LMS-611 (Pseudomonas aeruginosa [1]): 1-2 fold
MIC (Pseudomonas aeruginosa [1]; PA14, PA strain PA14): 2000 µg/mL
MIC (Pseudomonas aeruginosa [1]; PA strain H183): 2000 µg/mL
MIC (Pseudomonas aeruginosa [1]; PA strain PA01): 2000 µg/mL
MIC (Pseudomonas aeruginosa [1]; PA strain YH1): 2000 µg/mL

CCN1CCN(C(=O)N[C@@H](C(=O)N[C@@H]2C(=O)N3[C@@H]2SC(C)(C)[C@@H]3C(=O)O)c2ccccc2)C(=O)C1=O [Piperacillin]
sessile MIC + LMS (Pseudomonas aeruginosa [1]; PA strain H183): 250 µg/mL
sessile MIC + LMS (Pseudomonas aeruginosa [1]; PA strain PA01): 250 µg/mL
sessile MIC + LMS (Pseudomonas aeruginosa [1]; PA strain PA14): 1000 µg/mL
sessile MIC + LMS (Pseudomonas aeruginosa [1]; PA strain YH1): 1000 µg/mL
reduction of sessile MIC of the antibiotic by LMS-611 (Pseudomonas aeruginosa [1]): 4-16 fold
MIC (Pseudomonas aeruginosa [1]; PA14, PA strain PA14): 8000 µg/mL
MIC (Pseudomonas aeruginosa [1]; PA strain H183): 4000 µg/mL
MIC (Pseudomonas aeruginosa [1]; PA strain PA01): 2000 µg/mL
MIC (Pseudomonas aeruginosa [1]; PA strain YH1): 8000 µg/mL
effect of LMS-611 with antibiotic in reducing biofilm MICs, compared with antibiotic alone (Pseudomonas aeruginosa [1]): more effective
MIC (Burkholderia cenocepacia; BCC strain K56-2, antibiotic alone, read-out: sessile MIC): 64000 µg/mL
MIC (Burkholderia cenocepacia; BCC strain K56-2, in presence of LMS-611 (10 mg/mL), read-out: sessile MIC + LMS): 16000 µg/mL
MIC (Burkholderia cenocepacia; BCC strain YHBCC5, antibiotic alone, read-out: sessile MIC): 32000 µg/mL
MIC (Burkholderia cenocepacia; BCC strain YHBCC5, in presence of LMS-611 (10 mg/mL), read-out: sessile MIC + LMS): 4000 µg/mL
MIC (Burkholderia cenocepacia; BCC strain YHBCC6, antibiotic alone, read-out: sessile MIC): 32000 µg/mL
MIC (Burkholderia cenocepacia; BCC strain YHBCC6, in presence of LMS-611 (10 mg/mL), read-out: sessile MIC + LMS): 32000 µg/mL
MIC (Burkholderia cenocepacia; BCC strain YHBCC7, antibiotic alone, read-out: sessile MIC): 32000 µg/mL
MIC (Burkholderia cenocepacia; BCC strain YHBCC7, in presence of LMS-611 (10 mg/mL), read-out: sessile MIC + LMS): 4000 µg/mL

NC[C@H]1O[C@H](O[C@H]2[C@H](O)[C@@H](O[C@H]3O[C@H](CO)[C@@H](O)[C@H](N)[C@H]3O)[C@H](N)C[C@@H]2N)[C@H](N)C[C@@H]1O [Tobramycin]
sessile MIC + LMS (Pseudomonas aeruginosa [1]; PA strain H183): <4000 µg/mL
sessile MIC + LMS (Pseudomonas aeruginosa [1]; PA strain PA01): <4000 µg/mL
sessile MIC + LMS (Pseudomonas aeruginosa [1]; PA strain PA14): <4000 µg/mL
sessile MIC + LMS (Pseudomonas aeruginosa [1]; PA strain YH1): 500 µg/mL
reduction of sessile MIC of the antibiotic by LMS-611 (Pseudomonas aeruginosa [1]): 1-4 fold
MIC (Pseudomonas aeruginosa [1]; PA14, PA strain PA14): < 4000 µg/mL
MIC (Pseudomonas aeruginosa [1]; PA strain H183): < 4000 µg/mL
MIC (Pseudomonas aeruginosa [1]; PA strain PA01): < 4000 µg/mL
MIC (Pseudomonas aeruginosa [1]; PA strain YH1): 2000 µg/mL
bacterial kill of antibiotic with LMS-611 (Pseudomonas aeruginosa [2]): total bacterial kill
bacterial clearance of LMS-611 plus antibiotic compared to antibiotic treatment alone (Pseudomonas aeruginosa [2]; preformed biofilm, in combination with LMS-611): significantly greater bacterial clearance
bactericidal effect of nebulised antibiotic combined with LMS-611 by MSLI stage (PA strains): greater on the 6.8 μm, 3.1 μm and 1.7 μm stages

CC(C)(O/N=C(\C(=O)N[C@@H]1C(=O)N2C(C(=O)[O-])=C(C[n+]3ccccc3)CS[C@H]12)c1csc(N)n1)C(=O)O [ceftazidime]
effect of LMS-611 with antibiotic in reducing biofilm MICs, compared with antibiotic alone (Pseudomonas aeruginosa [1]): more effective

CC[C@H]1OC(=O)[C@H](C)[C@@H](O[C@H]2C[C@@](C)(OC)[C@@H](O)[C@H](C)O2)[C@H](C)[C@@H](O[C@@H]2O[C@H](C)C[C@H](N(C)C)[C@H]2O)[C@](C)(O)C[C@@H](C)C(=O)[C@H](C)[C@@H](O)[C@]1(C)O [erythromycin]
reduction of sessile MIC of the antibiotic by LMS-611 (Burkholderia cenocepacia; BCC strains, in combination with LMS-611): No effect

Gentamicin
sessile MIC (Pseudomonas aeruginosa [1]; PA strain H183): 4000 µg/mL
sessile MIC + LMS (Pseudomonas aeruginosa [1]; PA strain H183): 500 µg/mL
sessile MIC (Pseudomonas aeruginosa [1]; PA strain PA01): 4000 µg/mL
sessile MIC + LMS (Pseudomonas aeruginosa [1]; PA strain PA01): 500 µg/mL
sessile MIC (Pseudomonas aeruginosa [1]; PA strain PA14): 4000 µg/mL
sessile MIC + LMS (Pseudomonas aeruginosa [1]; PA strain PA14): 500 µg/mL
sessile MIC (Pseudomonas aeruginosa [1]; PA strain YH1): 500 µg/mL
reduction of sessile MIC of the antibiotic by LMS-611 (Pseudomonas aeruginosa [1]): 4-8 fold
effect of LMS-611 with antibiotic in reducing biofilm MICs, compared with antibiotic alone (Pseudomonas aeruginosa [1]): more effective
sessile MIC (Burkholderia cenocepacia; BCC strain K56-2, antibiotic alone): 256000 µg/mL
sessile MIC + LMS (Burkholderia cenocepacia; BCC strain K56-2, in presence of LMS-611 (10 mg/mL)): 64000 µg/mL
sessile MIC (Burkholderia cenocepacia; BCC strain YHBCC5, antibiotic alone): >256000 µg/mL
sessile MIC + LMS (Burkholderia cenocepacia; BCC strain YHBCC5, in presence of LMS-611 (10 mg/mL)): 256000 µg/mL
sessile MIC (Burkholderia cenocepacia; BCC strain YHBCC6, antibiotic alone): 64000 µg/mL
sessile MIC + LMS (Burkholderia cenocepacia; BCC strain YHBCC6, in presence of LMS-611 (10 mg/mL)): 16000 µg/mL
sessile MIC (Burkholderia cenocepacia; BCC strain YHBCC7, antibiotic alone): 128000 µg/mL
sessile MIC + LMS (Burkholderia cenocepacia; BCC strain YHBCC7, in presence of LMS-611 (10 mg/mL)): 16000 µg/mL

colistin
effect of LMS-611 with antibiotic in reducing biofilm MICs, compared with antibiotic alone (Pseudomonas aeruginosa [1]): more effective
bactericidal effect of nebulised antibiotic combined with LMS-611 by MSLI stage (PA strains): greatest bactericidal effect
